{"source": "ChEMBL document CHEMBL3988442", "about": "“University of Dundee, Small-Polar-MMV Screening Library” (2021)", "target": "T1, Coenzyme A biosynthesis bifunctional protein CoaBC (Mycobacterium tuberculosis (strain ATCC 25618 / H37Rv), UniProt P9WNZ1)", "T1 sequence (P9WNZ1 whole entry)": "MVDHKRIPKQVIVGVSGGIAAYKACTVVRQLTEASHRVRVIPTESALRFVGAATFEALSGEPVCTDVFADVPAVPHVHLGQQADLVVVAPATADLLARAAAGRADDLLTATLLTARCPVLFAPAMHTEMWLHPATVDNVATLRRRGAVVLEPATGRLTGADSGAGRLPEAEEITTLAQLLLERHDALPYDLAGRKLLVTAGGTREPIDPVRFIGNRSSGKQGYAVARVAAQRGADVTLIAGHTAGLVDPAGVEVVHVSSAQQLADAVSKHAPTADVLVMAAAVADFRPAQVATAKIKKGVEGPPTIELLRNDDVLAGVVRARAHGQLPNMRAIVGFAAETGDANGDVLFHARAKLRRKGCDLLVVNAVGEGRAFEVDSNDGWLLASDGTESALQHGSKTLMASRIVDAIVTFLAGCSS", "assay": "Biomol Green assay for MtCoaBC inhibitor, OD650 read", "type": "functional", "note": "Values joined by “and” are separate entries in the source; they are usually repeats but may differ in a detail not shown here. Identical values can stand only once.", "data": [{"compound": "O=C(CN1CCN(C(=O)c2ccccc2)CC1)Nc1ncc(Br)cc1Br", "values": [{"measurement": "IC50", "result": "> 30.2", "unit": "µM"}]}, {"compound": "COc1ccccc1CNC(=O)CS(=O)(=O)Cc1ccccc1", "values": [{"measurement": "IC50", "result": "> 30.2", "unit": "µM"}]}, {"compound": "O=c1c2ccccc2nc2n1CCC2O", "note": "(configuration not stated)", "values": [{"measurement": "IC50", "result": "> 30.2", "unit": "µM"}]}, {"compound": "O=C1c2c(O)cc(O)cc2O[C@@H](c2ccc(O)cc2)[C@@H]1O", "values": [{"measurement": "IC50", "result": "> 30.2", "unit": "µM"}]}, {"compound": "COCCCN(Cc1ccccn1)S(=O)(=O)N(C)C", "values": [{"measurement": "IC50", "result": "> 30.2", "unit": "µM"}]}, {"compound": "Cc1noc([C@@H]2C[C@H](NS(=O)(=O)Cc3ccccc3)CN2C)n1", "values": [{"measurement": "IC50", "result": "> 30.2", "unit": "µM"}]}, {"compound": "Cc1ccc(S(=O)(=O)NC[C@H]2OC[C@@H](NCc3cccs3)[C@@H]2O)cc1", "values": [{"measurement": "IC50", "result": "> 30.2", "unit": "µM"}]}, {"compound": "O=C1COC[C@H]([C@H](O)c2ccc(NC(=O)c3cccnc3)cc2)N1", "values": [{"measurement": "IC50", "result": "> 30.2", "unit": "µM"}]}, {"compound": "O=C1N(Cc2ccccn2)C[C@H]2CN(C3CCC3)CCN12", "values": [{"measurement": "IC50", "result": "> 30.2", "unit": "µM"}]}, {"compound": "CC(=O)N1CCC(N2CCN3C(=O)N(Cc4ccccn4)C[C@H]3C2)CC1", "values": [{"measurement": "IC50", "result": "> 30.2", "unit": "µM"}]}, {"compound": "CC(C)CCc1n[nH]c(C(=O)O)c1Cl", "values": [{"measurement": "IC50", "result": "> 50.1", "unit": "µM"}]}, {"compound": "CN(Cc1ccccc1)C(=O)Cn1nc(N2CCOCC2)ccc1=O", "values": [{"measurement": "IC50", "result": "> 30.2", "unit": "µM"}]}, {"compound": "Cc1cc(C)nc(N2CCCC(C(=O)Nc3n[nH]c(C(C)C)n3)C2)n1", "note": "(configuration not stated)", "values": [{"measurement": "IC50", "result": "> 30.2", "unit": "µM"}]}, {"compound": "Cc1cc(C)nc(N2CCC(C(=O)Nc3ncc[nH]3)CC2)n1", "values": [{"measurement": "IC50", "result": "> 30.2", "unit": "µM"}]}, {"compound": "CS(=O)(=O)N1CCN(C(=O)c2cc(-c3ccc(Br)s3)n[nH]2)CC1", "values": [{"measurement": "IC50", "result": "> 30.2", "unit": "µM"}]}, {"compound": "O=C(CCNc1ncccn1)Nc1ccc(Cn2cncn2)cc1", "values": [{"measurement": "IC50", "result": "> 30.2", "unit": "µM"}]}, {"compound": "CCN1CCCC1CNC(=O)Cc1c(-c2ccc(Cl)cc2)n[nH]c1C", "note": "(configuration not stated)", "values": [{"measurement": "IC50", "result": "> 30.2", "unit": "µM"}]}, {"compound": "Cc1cc(C)n(-c2cccc(C(=O)Nc3n[nH]c(C4CCCO4)n3)c2)n1", "note": "(configuration not stated)", "values": [{"measurement": "IC50", "result": "> 30.2", "unit": "µM"}]}, {"compound": "Cn1cnc2cc(NC(=O)c3n[nH]c4c3CCC4)ccc21", "values": [{"measurement": "IC50", "result": "> 30.2", "unit": "µM"}]}, {"compound": "O=C(NCCc1ccccn1)c1n[nH]c2c1CCC2", "values": [{"measurement": "IC50", "result": "> 30.2", "unit": "µM"}]}, {"compound": "COc1ccc(CC(=O)Nc2ccc3ncn(C(C)C)c(=O)c3c2)cc1", "values": [{"measurement": "IC50", "result": "> 30.2", "unit": "µM"}]}, {"compound": "O=C(O)C1CCN(c2nc3c(-c4ccccc4F)csc3c(=O)[nH]2)CC1", "values": [{"measurement": "IC50", "result": "> 30.2", "unit": "µM"}]}, {"compound": "COC(=O)c1ccc(S(=O)(=O)N2CCC(Oc3cccnn3)CC2)cc1", "values": [{"measurement": "IC50", "result": "> 30.2", "unit": "µM"}]}, {"compound": "Cc1cccc(CS(=O)(=O)NCc2nn(C)c3c2COCC3)c1", "values": [{"measurement": "IC50", "result": "> 30.2", "unit": "µM"}]}, {"compound": "CCN1CCOCC2(CCCN(C(=O)c3cnccn3)C2)C1", "note": "(configuration not stated)", "values": [{"measurement": "IC50", "result": "> 30.2", "unit": "µM"}]}, {"compound": "CC[C@@H]1N(Cc2cc(OC)cc(OC)c2)CCC[C@]12CCC(=O)N2C", "values": [{"measurement": "IC50", "result": "> 30.2", "unit": "µM"}]}, {"compound": "CN(Cc1cccnc1)CC1CC12CCN(Cc1nccs1)CC2", "note": "(configuration not stated)", "values": [{"measurement": "IC50", "result": "> 50.1", "unit": "µM"}]}, {"compound": "O=S(=O)(c1cccc(F)c1)N1C[C@@H]2COC[C@]2(COCC2CC2)C1", "values": [{"measurement": "IC50", "result": "> 30.2", "unit": "µM"}]}, {"compound": "CCOCC1CN(Cc2ccoc2)Cc2cn(CC3CC3)nc21", "note": "(configuration not stated)", "values": [{"measurement": "IC50", "result": "> 30.2", "unit": "µM"}]}, {"compound": "COCC1c2nnn(CC3CC3)c2CCN1C(=O)N1CCCC1", "note": "(configuration not stated)", "values": [{"measurement": "IC50", "result": "> 30.2", "unit": "µM"}]}, {"compound": "COCC1c2nnn(CC3CC3)c2CCN1C(=O)c1cccn1C", "note": "(configuration not stated)", "values": [{"measurement": "IC50", "result": "> 30.2", "unit": "µM"}]}, {"compound": "Cc1nc(C)n(CC2CN(S(C)(=O)=O)Cc3nccn3C2)n1", "note": "(configuration not stated)", "values": [{"measurement": "IC50", "result": "> 30.2", "unit": "µM"}]}, {"compound": "Cc1noc(C2CCC3(CCN(C(=O)c4ccncn4)CC3)O2)n1", "note": "(configuration not stated)", "values": [{"measurement": "IC50", "result": "> 30.2", "unit": "µM"}]}, {"compound": "O=C(NCCc1ccncc1)[C@H]1C[C@@H]2CCN(c3nncs3)C[C@H]2O1", "values": [{"measurement": "IC50", "result": "> 30.2", "unit": "µM"}]}, {"compound": "Cc1cccc(CN2CC3(CCN(C(N)=O)CC3)OCC2=O)n1", "values": [{"measurement": "IC50", "result": "> 30.2", "unit": "µM"}]}, {"compound": "Cn1cc(CN2CCCC3(CCN(Cc4ccncc4)C3=O)C2)cn1", "note": "(configuration not stated)", "values": [{"measurement": "IC50", "result": "> 30.2", "unit": "µM"}]}, {"compound": "CCn1cc(Cl)c(C(=O)NCCCN(C)C)n1", "values": [{"measurement": "IC50", "result": "> 30.2", "unit": "µM"}]}, {"compound": "Cc1cnc(NC(=O)C(C)Oc2ccc3c(c2)OCO3)s1", "note": "(configuration not stated)", "values": [{"measurement": "IC50", "result": "> 30.2", "unit": "µM"}]}, {"compound": "CN1CCN(c2ncc3c(=O)n(Cc4ccco4)ccc3n2)CC1", "values": [{"measurement": "IC50", "result": "> 30.2", "unit": "µM"}]}, {"compound": "CCN1CCCC(O)(CN(C)Cc2ccc(C)o2)C1", "note": "(configuration not stated)", "values": [{"measurement": "IC50", "result": "> 30.2", "unit": "µM"}]}, {"compound": "COc1cccc(CNC(=O)c2cc(C)nc(N3CCCCC3)n2)c1", "values": [{"measurement": "IC50", "result": "> 30.2", "unit": "µM"}]}, {"compound": "Cc1ccc(S(=O)(=O)Nc2ccc(N3CCSCC3)c(C(=O)O)c2)s1", "values": [{"measurement": "IC50", "result": "> 30.2 µM (2×) and 32.4 µM and 45.1 µM"}]}, {"compound": "Cc1sc(NC(=O)CN(C)CCOc2cccc(F)c2)c(C)c1C", "values": [{"measurement": "IC50", "result": "> 30.2", "unit": "µM"}]}, {"compound": "CN(CC(C)(CO)CO)C(=O)Nc1cc(Cl)cc(Cl)c1", "values": [{"measurement": "IC50", "result": "> 30.2", "unit": "µM"}]}, {"compound": "CC(NCCCN1CCCC1=O)c1cc(Br)ccc1F", "note": "(configuration not stated)", "values": [{"measurement": "IC50", "result": "> 30.2", "unit": "µM"}]}, {"compound": "CC(NCC1(N(C)C)CCOCC1)c1ccc(SC(F)F)cc1", "note": "(configuration not stated)", "values": [{"measurement": "IC50", "result": "> 30.2", "unit": "µM"}]}, {"compound": "Cc1c(C(=O)N2CCC2)nnn1-c1ccc2ncccc2c1", "values": [{"measurement": "IC50", "result": "> 30.2", "unit": "µM"}]}, {"compound": "CCC(c1ccncc1)N(C)S(C)(=O)=O", "note": "(configuration not stated)", "values": [{"measurement": "IC50", "result": "> 30.2", "unit": "µM"}]}, {"compound": "COc1ccc(-n2cc(CNC(=O)c3cc[nH]n3)nn2)cc1", "values": [{"measurement": "IC50", "result": "> 30.2", "unit": "µM"}]}, {"compound": "Cc1nnc2n1CC(CNCc1nc(-c3cccs3)no1)CC2", "note": "(configuration not stated)", "values": [{"measurement": "IC50", "result": "> 30.2", "unit": "µM"}]}, {"compound": "NC(=O)CN1CCC(NC(=O)COCCOc2ccccc2)CC1", "values": [{"measurement": "IC50", "result": "> 30.2", "unit": "µM"}]}, {"compound": "CC(C)NC1CCN(CCc2ccc3c(c2)CCO3)CC1", "values": [{"measurement": "IC50", "result": "> 50.1", "unit": "µM"}]}, {"compound": "CC(C)n1nnnc1-c1ccc(NC(=O)C(C)(C)C#N)cc1F", "values": [{"measurement": "IC50", "result": "> 30.2", "unit": "µM"}]}, {"compound": "CCC(CO)Nc1nc(C(F)F)nc2ccccc12", "note": "(configuration not stated)", "values": [{"measurement": "IC50", "result": "> 30.2", "unit": "µM"}]}, {"compound": "O=C1CN(Cc2occc2C(=O)NCCc2ccc(F)cc2)CCN1", "values": [{"measurement": "IC50", "result": "> 30.2", "unit": "µM"}]}, {"compound": "CC(C)c1noc(C[S+]([O-])CC(=O)Nc2ccc(F)c(F)c2)n1", "note": "(configuration not stated)", "values": [{"measurement": "IC50", "result": "> 30.2", "unit": "µM"}]}, {"compound": "CC(C)(CNC(=O)C1(c2ccccc2)CCOCC1)C(=O)O", "values": [{"measurement": "IC50", "result": "> 30.2", "unit": "µM"}]}]}
